Tests used:
[1] = test system: pooled human liver microsomes (HLM); experiment: Formation kinetics of SRL metabolites by pooled human liver microsomes; assay type: in vitro ADME; conditions: for Vmax: apparent Vmax of formation of the metabolite from sirolimus; for Vmax / Km: Michaelis–Menten fit; for Km: apparent Km of formation of the metabolite from sirolimus; for CLint: apparent intrinsic clearance of formation of the metabolite, CLint = Vmax/Km
Experimental: (§1) Apparent enzyme kinetic parameters for the major SRL metabolites were assessed. […] Before the addition of the SRL, the NADPH-generating system was preincubated at 37 °C (type C24 incubator shaker, New Brunswick Scientific, Edison, NJ, USA) for 5 min. […] The final volume of the reaction solution was 500 μL, and the reaction was quenched by the addition of a 1:1 volume of ice-cold acetonitrile. Following protein precipitation, samples were briefly vortexed and subsequently centrifuged at 4 °C and 13,000× g for 10 min. The supernatant was transferred to a 2-mL HPLC glass vial and analyzed using high-performance liquid chromatography/tandem mass spectrometry (LC-MS/MS). Representative control incubations without HLMs, without drug, or without the NADPH-generating system (all in quadruplicate) were carried out under the same conditions with every SRL HLM metabolism batch.
(§2) For data analysis, we utilized Sciex Analyst Software (version TF1.7.1) to process and interpret mass spectrometry data. […] Kinetics data was fitted using the GraphPad Prism Enzyme Kinetics Module (Version 10.0.2, for Windows, GraphPad Software, Boston, MA, USA).
(§3) The formation rates of hydroxy SRL and desmethyl SRL were analyzed and fitted using Michaelis–Menten kinetics. This approach enables the determination of kinetic parameters such as Vmax (maximum reaction velocity) and Km (substrate concentration at half-maximal velocity), which provide insight into the enzymatic activity and substrate affinity for these metabolites. […] To compare the formation of the various metabolites and to predict the human hepatic clearance, the apparent intrinsic clearances of the formation of the metabolites (CLint = Vmax/Km) were calculated.

[2] = design: method as in doi:10.1016/S0955-470X(10)80014-X, PMID 11165091; conditions: stability is increased in a mildly acidic environment; cited from earlier work
[3] = Formation kinetics of SRL metabolites by pooled human liver microsomes; assay type: in vitro ADME; conditions: human, pooled human liver microsomes, pH 7.4; sum over metabolite formation, pooled HLM, CLint = Vmax/Km; read-out: total Clint derived from the formation of hydroxylated and demethylated SRL metabolites
Experimental: as §1, §2, §3

[4] = test system: phytohemagglutinin-stimulated human lymphocyte proliferation; design: method as in PMID 1352208; conditions: percent of the immunosuppressive activity of SRL; cited from earlier work

| Compound | Vmax ([1]; n = 4) | Km ([1]; n = 4) | CLint [1] | also measured |
| --- | --- | --- | --- | --- |
| 23/24-Hydroxy sirolimus [23/24-Hydroxy SRL] | 2.221 pmol/mg protein/min |  |  |  |
| CO[C@@H]1C[C@H](C[C@@H](C)[C@@H]2CC(=O)[C@H](C)/C=C(\C)[C@@H](O)[C@@H](OC)C(=O)[C@H](C)C[C@H](C)/C=C/C=C/C=C(\C)[C@@H](O)C[C@@H]3CC[C@@H](C)[C@@](O)(O3)C(=O)C(=O)N3CCCC[C@H]3C(=O)O2)CC[C@H]1O [16-O-desmethyl SRL, 16-O-Desmethyl sirolimus] | 1.828 pmol/mg protein/min | 24.4 µM | 0.08 µL/mg protein/min |  |
| CO[C@H]1C[C@@H]2CC[C@@H](C)[C@@](O)(O2)C(=O)C(=O)N2CCCC[C@H]2C(=O)O[C@H]([C@H](C)C[C@@H]2CC[C@@H](O)[C@H](OC)C2)CC(=O)[C@H](C)/C=C(\C)[C@@H](O)[C@@H](OC)C(=O)[C@H](C)C[C@H](C)/C=C/C=C/C=C/1C [SRL, Sirolimus] |  |  |  | stability in aqueous solutions [2]: low stability in aqueous solutions; microsomal CLint [3]: 2.35 µL/min/mg |
| CO[C@H]1C[C@@H]2CC(O)[C@@H](C)[C@@](O)(O2)C(=O)C(=O)N2CCCC[C@H]2C(=O)O[C@H]([C@H](C)C[C@@H]2CC[C@@H](O)[C@H](OC)C2)CC(=O)[C@H](C)/C=C(\C)[C@@H](O)[C@@H](OC)C(=O)[C@H](C)C[C@H](C)/C=C/C=C/C=C/1C (stereo partly drawn) [12-Hydroxy SRL, 12-Hydroxy sirolimus] | 4.264 pmol/mg protein/min | 7.21 µM | 0.6 µL/mg protein/min | Vmax ([1]; n = 4, listed as 12-hydroxy SRL): 4.3 pmol/mg protein/min |
| 27-O-Desmethyl sirolimus [27-O-desmethyl SRL] | 0.552 pmol/mg protein/min |  |  |  |
| COC1CC2CCC(C)C(O)(O2)C(=O)C(=O)N2CCCCC2C(=O)OC(C(C)CC2CCC(O)C(O)C2)CC(=O)C(C)C=C(C)C(O)C(OC)C(=O)C(C)CC(C)C=CC=CC=C1C (stereo not drawn) [39-O-desmethyl SRL, 39-O-Desmethyl sirolimus] | 9.6 pmol/mg protein/min | 15 µM | 0.65 µL/mg protein/min | Vmax ([1]; n = 4, listed as 39-O-desmthyl SRL): 9.647 pmol/mg protein/min; immunosuppressive activity relative to SRL [4]: 10% |
| 11-Hydroxy sirolimus [11-Hydroxy SRL] | 6.203 pmol/mg protein/min |  |  | Vmax ([1]; n = 4, listed as 11-hydroxy SRL): 6.2 pmol/mg protein/min |
